Common to all, as to assay type: in vivo, mouse
In experiment [1] the test system is E0771 tumors. Put plainly: E0771 tumor growth analysis in C57BL/6 mice treated with DDA. Particulars: 0.37 μg/kg or 20 mg/kg DDA IP every 5 days. The procedure:
FIGS. 4A-C. Tumor growth analysis (A) Exponentially growing E0771 cells were collected, washed twice in PBS and resuspended in PBS (300,000 cells in 100 μl PBS). E0771 tumors were prepared by subcutaneous transplantation into the flanks of C57BL/6 mice. When tumor measured 50 mm3, the mice were treated every 5 days with 0.37 μg/kg or 20 mg/kg DDA or with the solvent vehicle (control).

In the next experiment the test system is E0771 tumor. Put plainly: Infiltration of immune cells inside E0771 tumor, flow cytometry. The settings on record: 0.37 μg/kg DDA, day 15 post treatment. The text has this: FIGS. 5A-D. Infiltration of immune cells inside E0771 tumor. (A-D) These bar graphs represent the ratio between (A) Th1 (CD4+ Tbet+) and Treg (CD4+ Foxp3+), (B) CTL cells (CD8+ Granzym B+) on No CTL cells (CD8+ Granzym b−), (C) macrophage type M1 (CD14+ CCR7+ IFNg+) and type M2 (CD14+ CD206+ IL10+) (D) dendritic cells (CD11c+) and myeloid derived suppressive cells (MDSC: CD11b+CD11clow, LY6C+ly6Gint) infiltrated inside the tumor. The tumors were removed at day 15 post treatment with DDA at 0.37 μg/kg (b) or with the solvent vehicle (control) (a). To observe the cytotoxic CD8 T cells, the tumor suspension was prealably stimulated 2 h in vitro with a cocktail of PMA (50 ng/ml), ionomycine (500 ng/ml) and golgistop (concentration from manufacture BD Pharmagen), then the cells were stained with specific antibodies.
Tumor dissociation: Freshly excised tumors were trimmed of skin, fat, and necrotic tissue and minced in cold Hanks' medium. The minced tumor pieces were placed in an enzyme solution consisting of collagenase type D at 1 mg/ml and DNase type 1 at 20 μg/ml in Hanks' medium at 37° C. After 30 min of dissociation, the cell suspension was collected, washed with Hank's medium, and then suspended in PBS 1×, 0.5% BSA, 0.02% azide and […] EDTA (Facs medium).
Analysis of immune cells by flow cytometry. Immune cells from the tumors were stained with the indicated fluorescent-labelled antibodies: anti mouse α-CD4, α-CD8, α-T-bet, α-Foxp3, α-granzyme B, α-PD-1, α-CD44, α-Ly6C, α-Ly6G, α-CD11b, α-CD11c, α-CD206, α-CD86, α-IL10, α-IL-6, α-IL-4 purchased from eBioscience or Biolegend. Intracellular staining for T-bet, Foxp3, IFNg, Granzyme B, IL-10, IL-4 and IL-6 was performed according the manufacturer's protocol from Biolegend. To observe the cytotoxic CD8 T cells, the tumor suspension was prealably stimulated 2 h in vitro with a cocktail of PMA (50 ng/ml), ionomycine (500 ng/ml) and golgistop (concentration from manufacture BD Pharmingen), then the cells were stained with specific antibodies. To set the gates, flow cytometry dot plots were based on comparison with isotype control. Flow cytometry measurements of single-cells suspension were performed on a Fortessa 20X (BD pharmingen) and data were analyzed using FlowJo software.
(In general: In flow cytometry, cells or beads pass a laser one at a time.)

For experiment [2], the system named is E0771 tumors. Put plainly: Immune cells infiltrated into E0771 tumors (wild type, sh control, sh LXR) after DDA, flow cytometry.

With `CC(C)CCCC(C)[C@H]1CCC2C3C[C@@H](NCCc4cnc[nH]4)[C@@]4(O)C[C@@H](O)CC[C@]4(C)C3CC[C@@]21C` (stereo partly drawn) [DDA, 5a-hydroxy-6b-[2-(1H-imidazol-4-yl)ethylamino]cholestan-3b-ol], in the experiment with E0771 tumors [1], the mice survival result is “increases mice survival” and the tumor growth result is given as “inhibits tumor growth”. In the experiment on E0771 tumor, the “infiltration into the tumor of inactivated CD8 (No CTL)” value is listed as “decreases”, the “infiltration into the tumor of macrophage type M2” value was “decreases”, the “infiltration into the tumor of myeloid derived suppressive cells (MDSC)” value is given as “decreases” and the “infiltration into the tumor of regulatory CD4 Treg cells” value is listed as “decreases”. Also, in the experiment on E0771 tumor, the “infiltration of CD4 Th1 cells inside the tumor” value is reported as “increases”, the “infiltration of activated CD8 (CTL) inside the tumor” value is “increases”, the “infiltration of dendritic cells (DC: CD11c+) inside the tumor” value is reported as “increases” and the “infiltration of macrophage type M1 inside the tumor” value is “increases”. Besides, the “number of macrophages M2 infiltrated into the tumors” value in the experiment on E0771 tumors [2] (0.37 μg/kg DDA (FIG. 18)) was “decreases”. Moreover, in the experiment on E0771 tumors [2] (0.37 μg/kg DDA (FIG. 19)), the “number of MDSC infiltrated into the tumor” value was “decreases” and the “ratio of dendritic cells CD11+ CD8α+ versus MDSC” value is given as “increases”. In addition, the “LXRβ dependence of effect on macrophages M1” value in the experiment on E0771 tumors [2] (shLXRβ vs LXRβ expressing tumors (FIG. 18)) is reported as “dependent of the LXRβ”. Also, the “effects on MDSC and dendritic cells/MDSC ratio” value in the experiment with E0771 tumors [2] (tumors knocked-down for the LXRβ (FIG. 19)) is reported as “abolished”.

Values taken from patent US20230138400A1, “METHODS AND PHARMACEUTICAL COMPOSITIONS FOR REPROGRAMING IMMUNE ENVIRONMENT IN A SUBJECT IN NEED THEREOF” (INSERM (INSTITUT NATIONAL DE LA SANTE ET DE LA RECHERCHE …, priority 2016, published 2023).
